Laboratory results from US9765022B2, “Disulfide compounds for delivery of pharmaceutical agents” (Tufts University, priority 2013, dated 2017).

Tested on: 4T1-12B breast tumors
Assay: In vivo cancer treatment, tumor growth inhibition
Design: species or system BALB/c mice
Conditions: tail-vein injection every three days, 5.5 mg/kg lipid and 330 μg/kg saporin
Procedure: Composition 31 (i.e., containing 1-O16B and saporin) and Composition 32 (i.e., containing 1-O18B and saporin) were tested for in vivo inhibiting tumor growth following the procedure described below. More specifically, BALB/c mice bearing 4T1-12B breast tumors were developed from a 4T1-12B cell suspension in DMEM supplemented with 10% FBS at a concentration of 10^7 cells/mL. An aliquot (100 μL) of the cell suspension was injected into the mammary fat pad of 4-6 week-old female BALB/c mice. The mice were sorted into four groups randomly (n=7 for treatment group, n=5 for control groups) seven days after the injection. The mice were injected through tail-vein every three days. For the treatment group, each mouse was injected with 5.5 mg/kg of 1-O16B or 1-O18B and 330 μg/kg of saporin. Tumor volumes were measured every three days.
PBS without 1-O16B, 1-O18B, and saporin was also injected as a control. Comparative studies were also conducted using saporin in PBS without 1-O16B and 1-O18B.

saporin
tumor size (Day 16): more than 120 mm^3
tumor size (Day 22): more than 250 mm^3
